Tests used:
[1] = system: PPARγ phosphorylation at S273; type: cell-based, mouse; details: 3T3-L1 differentiated adipocytes, in the presence of TNFα, compounds at 10 μM, Western blot with pSer273-specific antibody
[2] = molecular target: T1, GST-tagged PPARγ ligand-binding domain (PPARγ LBD) (Homo sapiens, UniProt P37231); assay: In vitro competition binding assay
T1 sequence (P37231 238-503 limits assumed): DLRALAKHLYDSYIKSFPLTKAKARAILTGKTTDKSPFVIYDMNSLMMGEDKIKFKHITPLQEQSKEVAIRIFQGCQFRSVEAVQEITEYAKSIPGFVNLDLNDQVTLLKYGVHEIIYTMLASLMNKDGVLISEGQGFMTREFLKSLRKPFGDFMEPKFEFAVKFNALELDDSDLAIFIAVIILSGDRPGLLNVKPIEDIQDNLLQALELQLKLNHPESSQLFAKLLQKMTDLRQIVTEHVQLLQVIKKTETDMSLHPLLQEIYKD

[3] = molecular target: T1, GST-tagged PPARγ ligand-binding domain (PPARγ LBD); assay: biochemical
3T3-L1 cells = assay: Oil Red O staining of 3T3-L1 adipocyte differentiation; type: cell-based, mouse; details: 3T3-L1 in differentiation media, compounds at 10 μM

Structure (SMILES)	Inhibition of PPARγ S273 phosphorylation [1]	fold improvement in PPARγ binding potency compared to parental compound UHC1 ([2]; ratio of IC50 vs UHC1)	IC50 [2]	Ki [3]	Adipocyte differentiation (Oil Red O staining of lipid droplets) (3T3-L1 cells)
COc1cc(CNC(=O)c2ccc3c(c2)c(C)c(C)n3Cc2ccc(-c3ccccc3C(=O)O)cc2)ccc1O [Compound 2e, 4’-((5-((4-Hydroxy-3-methoxybenzyl)carbamoyl)-2,3-dimethyl-1H-indol-1-yl)methyl)-[1,1’-biphenyl]-2-carboxylic acid]	significantly inhibited	over 30 fold	–	–	–
Cc1cc(C(=O)NCc2cccc(O)c2)ccc1NCc1ccc(-c2ccccc2C(=O)O)cc1 [Compound 5, 4’-(((4-((3-Hydroxybenzyl)carbamoyl)-2-methylphenyl)amino)methyl)-[1,1’-biphenyl]-2-carboxylic acid]	–	–	0.325 µM	0.254 µM	–
Cc1c(C)n(Cc2ccc(-c3ccccc3C(=O)O)cc2)c2ccc(C(=O)NCc3cccnc3)cc12 [UHC1, reference compound]	significantly inhibited	–	–	–	significantly reduced Oil Red O staining
